Data from the supplement of paper PMC10331698.
± gives the standard deviation of the averaged measurements.

Tests used:
Assay in all cases: level (log10 ratio to DMSO vehicle control); higher = higher biomarker level / cell amount than vehicle control
Conditions in all cases: in DMSO
[1] = compound: FC(F)(F)C(F)(F)C(F)(F)C(F)(F)C(F)(F)C(F)(F)C(F)(F)C(F)(F)CCS [2-(Perfluorooctyl)ethanthiol]
Protocol: (§1)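 BioMAP Diversity Plus panel of 12 human primary cell co-culture systems (3C, 4H, LPS, SAg, BT, BF4T, BE3C, CASM3C, HDF3CGF, KF3CT, MyoF, Mphg). Compounds were added 1 h before stimulation and left for 24 h (MyoF 48 h; BT 72 h for soluble read-outs or 6 d for IgG). Biomarkers were read by ELISA, cytotoxicity by SRB, PBMC viability and proliferation by Alamar Blue. Each well value was divided by the mean of 8 DMSO control wells on the same plate and log10 transformed; duplicate blinded samples were tested at 4 concentrations.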

Pentafluoropropionamide = compound: NC(=O)C(F)(F)C(F)(F)F [Pentafluoropropionamide]
Protocol: as §1

Perfluorodecanoic acid = compound: O=C(O)C(F)(F)C(F)(F)C(F)(F)C(F)(F)C(F)(F)C(F)(F)C(F)(F)C(F)(F)C(F)(F)F [Perfluorodecanoic acid]
Protocol: as §1

Perfluoroheptanoic acid = compound: O=C(O)C(F)(F)C(F)(F)C(F)(F)C(F)(F)C(F)(F)C(F)(F)F [Perfluoroheptanoic acid]
Protocol: as §1

[2] = compound: O=C(O)C(F)(F)C(F)(F)C(F)F [4H-Perfluorobutanoic acid]
Protocol: as §1

Perfluoropropanoic acid = compound: O=C(O)C(F)(F)C(F)(F)F [Perfluoropropanoic acid]
Protocol: as §1

[3] = compound: O=S(=O)(O)C(F)(F)C(F)(F)C(F)(F)C(F)(F)C(F)(F)C(F)(F)F [Perfluorohexanesulfonic acid]
Protocol: as §1

Test System | level (log10) ([1]; 6700 nM) | level (log10) ([1]; 20000 nM) | level (log10) (Pentafluoropropionamide; 6700 nM) | level (log10) (Pentafluoropropionamide; 20000 nM) | level (log10) (Pentafluoropropionamide; 60000 nM) | level (log10) (Perfluorodecanoic acid; 6700 nM) | level (log10) (Perfluorodecanoic acid; 20000 nM) | level (log10) (Perfluoroheptanoic acid; 6700 nM) | level (log10) (Perfluoroheptanoic acid; 20000 nM) | level (log10) (Perfluoroheptanoic acid; 60000 nM) | level (log10) ([2]; 6700 nM) | level (log10) ([2]; 20000 nM) | level (log10) ([2]; 60000 nM) | level (log10) (Perfluoropropanoic acid; 6700 nM) | level (log10) (Perfluoropropanoic acid; 20000 nM) | level (log10) (Perfluoropropanoic acid; 60000 nM) | level (log10) ([3]; 6700 nM) | level (log10) ([3]; 20000 nM) | level (log10) ([3]; 60000 nM)
SAg:CXCL8/IL-8 | -0.0215 ± 0.032 | 0.027 ± 0.082 | -0.0245 ± 0.025 | -0.0255 ± 0.036 | 0.0075 ± 0.04 | -0.0325 ± 0.03 | -0.064 ± 0.038 | 0.008 ± 0.011 | 0.0115 ± 0.0078 | 0.0715 ± 0.043 | -0.0325 ± 0.03 | -0.0065 ± 0.022 | 0.025 ± 0.098 | -0.022 ± 0.0057 | 0.0065 ± 0.019 | 0.0415 ± 0.0078 | 0.0185 ± 0.012 | 0.019 ± 0.018 | 0.107 ± 0.04
BE3C:CXCL10/IP-10 | 0.0405 ± 0.05 | 0.016 ± 0.058 | -0.008 ± 0.0085 | 0 ± 0.0028 | -0.0015 ± 0.0064 | -0.188 ± 0.088 | -1.16 | 0.0055 ± 0.022 | 0.0065 ± 0.0092 | 0.0045 ± 0.011 | -0.006 ± 0.021 | -0.001 ± 0.0099 | 0.017 ± 0.021 | -0.0125 ± 0.019 | 0.0035 ± 0.022 | 0.014 ± 0.025 | -0.0035 ± 0.00071 | -0.01 ± 0.0071 | -0.0405 ± 0.016
3C:SRB | 0.005 ± 0.0071 | -0.013 ± 0.016 | 0.008 ± 0.031 | -0.001 ± 0.011 | -0.025 ± 0.011 | 0.0095 ± 0.0021 | -0.005 ± 0.0042 | -0.0065 ± 0.0078 | 0.005 ± 0.0085 | -0.0255 ± 0.0035 | 0.0015 ± 0.0064 | -0.007 ± 0.016 | -0.0075 ± 0.013 | -0.0115 ± 0.0035 | -0.009 ± 0.0028 | -0.0065 ± 0.0021 | -0.011 ± 0.0085 | -0.014 ± 0.0014 | -0.0425 ± 0.019
LPS:SRB | 0.0025 ± 0.0078 | -0.003 ± 0.014 | 0 ± 0.014 | -0.006 ± 0.0014 | -0.0105 ± 0.00071 | 0.01 ± 0.0071 | 0.003 ± 0.0042 | -0.019 ± 0.0085 | 0.001 ± 0.0028 | -0.019 ± 0.0099 | -0.0045 ± 0.0035 | -0.0105 ± 0.0092 | 0.003 | -0.0125 ± 0.00071 | -0.0035 ± 0.013 | -0.0065 ± 0.0064 | -0.0075 ± 0.013 | -0.0115 ± 0.00071 | -0.0175 ± 0.018
BT:B cell Proliferation | -0.007 ± 0.0057 | 0.038 ± 0.0042 | 0.005 ± 0.057 | -0.0215 ± 0.019 | 0.0205 ± 0.019 | 0.0135 ± 0.04 | 0.0395 ± 0.03 | 0.018 ± 0.0085 | 0.0145 ± 0.033 | 0.061 ± 0.028 | 0.016 ± 0.0099 | 0.0055 ± 0.019 | 0.0065 ± 0.036 | 0.0125 ± 0.044 | -0.041 ± 0.0085 | -0.002 ± 0.051 | -0.0075 ± 0.047 | 0.0015 ± 0.053 | 0.063 ± 0.024
LPS:sPGE2 | -0.017 ± 0.025 | -0.022 ± 0.011 | 0.032 ± 0.0085 | -0.008 ± 0.0071 | -0.018 ± 0.014 | -0.017 ± 0.025 | -0.052 ± 0.0071 | 0.0295 ± 0.005 | -0.0185 ± 0.022 | -0.0285 ± 0.059 | 0.0025 ± 0.054 | -0.111 ± 0.054 | -0.052 ± 0.013 | -0.017 ± 0.05 | -0.018 ± 0.0071 | -0.011 ± 0.04 | 0.0115 ± 0.0064 | -0.007 ± 0.0099 | -0.106 ± 0.028
BE3C:CXCL8/IL-8 | 0.04 ± 0.073 | 0.0135 ± 0.093 | 0.016 ± 0.028 | 0.0125 ± 0.074 | 0.0445 ± 0.044 | -0.0545 ± 0.069 | -0.577 ± 0.023 | 0.033 ± 0.041 | 0.008 ± 0.042 | 0.0205 ± 0.1 | 0.015 ± 0.099 | 0.0165 ± 0.044 | 0.0695 ± 0.071 | -0.0355 ± 0.083 | 0.001 ± 0.083 | 0.0605 ± 0.13 | 0.017 ± 0.0071 | 0.0175 ± 0.023 | -0.032 ± 0.044
SAg:SRB | 0.002 ± 0.0014 | -0.004 ± 0.0014 | -0.0005 ± 0.016 | -0.0055 ± 0.0092 | -0.01 ± 0.014 | -0.0035 ± 0.012 | -0.008 ± 0.013 | -0.0155 ± 0.013 | 0.001 ± 0.011 | -0.0385 ± 0.016 | -0.0055 ± 0.0078 | -0.0145 ± 0.0021 | 0 ± 0.0028 | -0.01 ± 0.0028 | -0.014 ± 0.0042 | -0.0035 ± 0.00071 | -0.019 ± 0.0085 | -0.018 ± 0.0042 | -0.033 ± 0.03
BE3C:CXCL9/MIG | -0.0085 ± 0.011 | -0.001 ± 0.011 | 0.004 ± 0.0028 | -0.0015 ± 0.011 | 0.0075 ± 0.0035 | -0.003 ± 0.0042 | -0.715 ± 0.9 | 0 ± 0.0014 | 0.0065 ± 0.011 | 0.012 ± 0.017 | -0.0015 ± 0.011 | 0.0085 ± 0.022 | 0.0135 ± 0.0092 | -0.0005 ± 0.016 | 0.0035 ± 0.0078 | 0.0165 ± 0.023 | 0.0035 ± 0.0092 | -0.001 ± 0.0028 | -0.007 ± 0.0028
3C:CD87/uPAR | -0.0175 ± 0.0021 | -0.0215 ± 0.0035 | -0.052 ± 0.016 | -0.042 ± 0.038 | -0.049 ± 0.014 | 0.011 ± 0.02 | -0.01 ± 0.02 | 0.0015 ± 0.0021 | -0.0115 ± 0.026 | 0.0045 ± 0.013 | -0.0265 ± 0.0092 | -0.0065 ± 0.0092 | 0.0095 ± 0.0064 | -0.008 ± 0.011 | -0.005 ± 0.011 | 0.0125 ± 0.013 | -0.005 ± 0.027 | 0.0045 ± 0.011 | -0.0285 ± 0.013
